The text below walks through data of patent US8957063B2, “Amine and ether compounds which modulate the CB2 receptor” (priority 2008, dated 2015).

The target in one assay is T1, human CB2R (Homo sapiens, UniProt P34972).
T1 construct: host or cells: CHO cells
T1 sequence (P34972 whole entry): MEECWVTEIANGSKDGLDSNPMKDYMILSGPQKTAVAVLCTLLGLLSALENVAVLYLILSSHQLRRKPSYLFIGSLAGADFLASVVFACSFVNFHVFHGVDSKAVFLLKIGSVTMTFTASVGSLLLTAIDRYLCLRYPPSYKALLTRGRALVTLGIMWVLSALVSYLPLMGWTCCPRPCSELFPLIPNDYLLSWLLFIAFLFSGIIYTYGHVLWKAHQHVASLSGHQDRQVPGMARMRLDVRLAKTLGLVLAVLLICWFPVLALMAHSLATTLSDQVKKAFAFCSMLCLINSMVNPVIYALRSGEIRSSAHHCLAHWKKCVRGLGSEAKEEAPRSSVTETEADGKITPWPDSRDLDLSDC
Nature of the assay: CB2R mediated modulation of cAMP synthesis. The class given is cell-based.
Conditions: not given
Here is the method: B. CB2R Mediated Modulation of cAMP Synthesis:
Compounds of the invention were evaluated for their CB2 agonist or inverse agonistic activity in accordance with the following experimental method.
CHO cells expressing human CB2R (Euroscreen) were plated at a density of 5000 cells per well in 384 well plates and incubated overnight at 37° C. After removing the media, the cells were treated with test compounds diluted in stimulation buffer containing 1 mM IBMX, 0.25% BSA and 10 uM Forskolin. The assay was incubated for 30 minutes at 37° C. Cells were lysed and the cAMP concentration was measured using DiscoverX-XS cAMP kit, following the manufacturer's protocol. In this setting, agonists will decrease forskolin induced production of cAMP while inverse agonists will further increase forskolin induced production of cAMP. EC50 of agonists were calculated as follows. The maximal amount of cAMP produced by forskolin compared to the level of cAMP inhibited by 1 uM CP55940 is defined as 100%. The EC50 value of each test compound was determined as the concentration at which 50% of the forskolin-stimulated cAMP synthesis was inhibited. Data was analyzed using a four-parameter logistic model. (Model 205 of XLfit 4.0).
`CC(C)(Oc1ccc(Cl)cc1)C(=O)Nc1cc(C(C)(C)C)on1` [Example 1, N-(5-tert-Butyl-isoxazol-3-yl)-2-(4-chloro-phenoxy)-2-methyl-propionamide] gave an EC50 of 2.4 nM.

As to `CC(C)(OCC1CCOCC1)C(=O)Nc1cc(C(C)(C)C)no1` [Example 2, N-(3-tert-Butyl-isoxazol-5-yl)-2-methyl-2-(tetrahydro-pyran-4-ylmethoxy)-propionamide], the EC50 is 8.1 nM.

With `CC(C)(OCC1CCOCC1)C(=O)Nc1cc(C(C)(C)C)on1` [Example 3, N-(5-tert-Butyl-isoxazol-3-yl)-2-methyl-2-(tetrahydro-pyran-4-ylmethoxy)-propionamide], the EC50 stood at 50 nM.

With `CC(C)(OC1CCOCC1)C(=O)Nc1cc(C(C)(C)C)no1` [Example 4, N-(3-tert-Butyl-isoxazol-5-yl)-2-methyl-2-(tetrahydro-pyran-4-yloxy)-propionamide], the EC50 was 107 nM.

Turning to `CC(C)(OC1CCOCC1)C(=O)Nc1cc(C(C)(C)C)on1` [Example 5, N-(5-tert-Butyl-isoxazol-3-yl)-2-methyl-2-(tetrahydro-pyran-4-yloxy)-propionamide], the response was half-maximal at 123 nM (EC50).

`CC(C)(OCC1CCOCC1)C(=O)Nc1nc(-c2ccccc2)n[nH]1` [Example 6, 2-Methyl-N-(5-phenyl-2H-1,2,4-triazol-3-yl)-2-(tetrahydro-pyran-4-ylmethoxy)-propionamide] had an EC50 of 51 nM.

Take `CC(C)(OC1CCOCC1)C(=O)Nc1nc(-c2ccccc2)n[nH]1` [Example 7, 2-Methyl-N-(5-phenyl-2H-1,2,4-triazol-3-yl)-2-(tetrahydro-pyran-4-yloxy)-propionamide]: a half-maximal response (EC50) required 235 nM.

Turning to `CC(C)(Oc1ccc(C(F)(F)F)cn1)C(=O)Nc1cc(C(C)(C)C)no1` [Example 8, N-(3-tert-Butyl-isoxazol-5-yl)-2-methyl-2-(5-trifluoromethyl-pyridin-2-yloxy)-propionamide], the EC50 is 0.1 nM.

`COc1ccc(NC(C)(C)C(=O)Nc2cc(C(C)(C)C)on2)cc1` [Example 9, N-(5-tert-Butyl-isoxazol-3-yl)-2-(4-methoxy-phenylamino)-2-methyl-propionamide]: the EC50 was 8.7 nM.

The compound `CC(C)NC(C)(C)C(=O)Nc1cc(C(C)(C)C)on1` [Example 10, N-(5-tert-Butyl-isoxazol-3-yl)-2-isopropylamino-2-methyl-propionamide] gave an EC50 of 100 nM.

The compound `CCC(C)NC(C)(C)C(=O)Nc1cc(C(C)(C)C)on1` (stereo not drawn) [Example 11, 2-sec-Butylamino-N-(5-tert-butyl-isoxazol-3-yl)-2-methyl-propionamide] yielded an EC50 of 177 nM.

`CC(C)N(C)C(C)(C)C(=O)Nc1cc(C(C)(C)C)on1` [Example 12, N-(5-tert-Butyl-isoxazol-3-yl)-2-(isopropyl-methyl-amino)-2-methyl-propionamide] yielded an EC50 of 8.4 nM.

As to `CC(C)(C)c1cc(NC(=O)C(C)(C)N2CCOCC2)no1` [Example 13, N-(5-tert-Butyl-isoxazol-3-yl)-2-morpholin-4-yl-isobutyramide], the EC50 was 45 nM.

`CC(C)(NC1CCCCC1)C(=O)Nc1cc(C(C)(C)C)on1` [Example 14, N-(5-tert-Butyl-isoxazol-3-yl)-2-cyclohexylamino-2-methyl-propionamide] registered an EC50 of 9.5 nM.

In turn, `CCCCNC(C)(C)C(=O)Nc1cc(C(C)(C)C)on1` [Example 17, 2-Butylamino-N-(5-tert-butyl-isoxazol-3-yl)-2-methyl-propionamide] returned an EC50 of 96 nM.

Compound `CC1CCCN(C(C)(C)C(=O)Nc2cc(C(C)(C)C)on2)C1` (stereo not drawn) [Example 19, N-(5-tert-Butyl-isoxazol-3-yl)-2-(3-methyl-piperidin-1-yl)-isobutyramide] returned an EC50 of 0.34 nM.

Compound `CC1CCCN1C(C)(C)C(=O)Nc1cc(C(C)(C)C)on1` (stereo not drawn) [Example 20, N-(5-tert-Butyl-isoxazol-3-yl)-2-(2-methyl-pyrrolidin-1-yl)-isobutyramide] registered an EC50 of 24 nM.

The compound `CC1CCN(C(C)(C)C(=O)Nc2cc(C(C)(C)C)on2)CC1` [Example 21, N-(5-tert-Butyl-isoxazol-3-yl)-2-(4-methyl-piperidin-1-yl)-isobutyramide] registered an EC50 of 2.6 nM.

Turning to `CC(C)(C)c1cc(NC(=O)C(C)(C)N2CCSCC2)no1` [Example 22, N-(5-tert-Butyl-isoxazol-3-yl)-2-thiomorpholin-4-yl-isobutyramide], the EC50 turned out to be 9.9 nM.

For `CC(C)(NC1CC1)C(=O)Nc1cc(C(C)(C)C)on1` [Example 23, N-(5-tert-Butyl-isoxazol-3-yl)-2-cyclopropylamino-2-methyl-propionamide], the EC50 worked out at 235 nM.

Turning to `CC1CCCCN1C(C)(C)C(=O)Nc1cc(C(C)(C)C)on1` (stereo not drawn) [Example 24, N-(5-tert-Butyl-isoxazol-3-yl)-2-(2-methyl-piperidin-1-yl)-isobutyramide], the EC50 came out at 1.2 nM.

Turning to `COC1CCN(C(C)(C)C(=O)Nc2cc(C(C)(C)C)on2)CC1` [Example 25, N-(5-tert-Butyl-isoxazol-3-yl)-2-(4-methoxy-piperidin-1-yl)-isobutyramide], the midpoint of the response, the EC50, lay at 0.21 nM.

With `CC(C)(C)c1cc(NC(=O)C(C)(C)N2CCCCC2)no1` [Example 26, N-(5-tert-Butyl-isoxazol-3-yl)-2-piperidin-1-yl-isobutyramide], the EC50 amounted to 0.55 nM.

The compound `CC(C)(C)c1cc(NC(=O)C(C)(C)N2CCCC2)no1` [Example 27, N-(5-tert-Butyl-isoxazol-3-yl)-2-pyrrolidin-1-yl-isobutyramide] came in with an EC50 of 23 nM.

For `CC(C)(C)c1cc(NC(=O)C(C)(C)N2CCC(F)(F)CC2)no1` [Example 28, N-(5-tert-Butyl-isoxazol-3-yl)-2-(4,4-difluoro-piperidin-1-yl)-isobutyramide], the EC50 was found to be 24 nM.

On to `CC(C)(C(=O)Nc1ccc(C(F)(F)F)cn1)N1CCCCC1` [Example 32, 2-Piperidin-1-yl-N-(5-trifluoromethyl-pyridin-2-yl)-isobutyramide], for which the response was half-maximal at 127 nM (EC50).

As to `CC(C)(C)c1cc(NC(=O)C(C)(C)n2ccc3cc(Cl)ccc32)no1` [Example 35, N-(5-tert-Butyl-isoxazol-3-yl)-2-(5-chloro-indol-1-yl)-isobutyramide], a half-maximal effect (EC50) was put at 0.22 nM.

`CC(C)(C)c1cc(NC(=O)C(C)(C)N2CCC3(CCCCC3)C2)on1` [Example 36, 2-(2-Aza-spiro[4.5]dec-2-yl)-N-(3-tert-butyl-isoxazol-5-yl)-isobutyramide] gave an EC50 of 0.45 nM.

The compound `CC(C)(NCC1CCOCC1)C(=O)Nc1cc(C(C)(C)C)no1` [Example 37] showed an EC50 of 14 nM.

`CC(C)(NCC1CCOCC1)C(=O)Nc1cc(C(C)(C)C)on1` [Example 38, N-(5-tert-Butyl-isoxazol-3-yl)-2-methyl-2-[(tetrahydro-pyran-4-ylmethyl)-amino]-propionamide] yielded a concentration for a half-maximal effect (EC50) of 125 nM.

`CC(C)(NC1CCOCC1)C(=O)Nc1cc(C(C)(C)C)no1` [Example 39, N-(3-tert-Butyl-isoxazol-5-yl)-2-methyl-2-(tetrahydro-pyran-4-ylamino)-propionamide] registered an EC50 of 29 nM.

As to `CC(C)(NC1CCOCC1)C(=O)Nc1cc(C(C)(C)C)on1` [Example 40, N-(5-tert-Butyl-isoxazol-3-yl)-2-methyl-2-(tetrahydro-pyran-4-ylamino)-propionamide], the EC50 amounted to 35 nM.

`CC(C)(NCC1CCOCC1)C(=O)Nc1nc(-c2ccccc2)n[nH]1` [Example 41, 2-Methyl-N-(5-phenyl-2H-1,2,4-triazol-3-yl)-2-[(tetrahydro-pyran-4-ylmethyl)-amino]-propionamide]: the EC50 is 98 nM.

Consider `CC(C)(NC1CCOCC1)C(=O)Nc1nc(-c2ccccc2)n[nH]1` [Example 42, 2-Methyl-N-(5-phenyl-2H-1,2,4-triazol-3-yl)-2-(tetrahydro-pyran-4-ylamino)-propionamide], for which the EC50 is 260 nM.

On to `CC(C)(Nc1ccc(C(F)(F)F)cc1)C(=O)Nc1cc(C(C)(C)C)no1` [Example 43, N-(3-tert-Butyl-isoxazol-5-yl)-2-methyl-2-(4-trifluoromethyl-phenylamino)-propionamide], for which the EC50 is 1.1 nM.

As for `CC(C)(Nc1ccc(C(F)(F)F)cn1)C(=O)Nc1cc(C(C)(C)C)no1` [Example 46, N-(3-tert-Butyl-isoxazol-5-yl)-2-methyl-2-(5-trifluoromethyl-pyridin-2-ylamino)-propionamide], the EC50 was determined as 0.78 nM.

As to `CC(C)(Nc1ccc(C(F)(F)F)cn1)C(=O)Nc1cc(C(C)(C)C)on1` [Example 47, N-(5-tert-Butyl-isoxazol-3-yl)-2-methyl-2-(5-trifluoromethyl-pyridin-2-ylamino)-propionamide], the EC50 stood at 20 nM.

For the compound `CN(C(C)(C)C(=O)Nc1cc(C(C)(C)C)on1)S(=O)(=O)c1ccc(Cl)cc1` [Example 48, N-(5-tert-Butyl-isoxazol-3-yl)-2-[(4-chloro-benzenesulfonyl)-methyl-amino]-2-methyl-propionamide], the concentration giving a half-maximal response (EC50) turned out to be 0.36 nM.

The assay is the same for the next values; noted with them: CHO cells expressing human CB2R; concentration at which 50% of the forskolin-stimulated cAMP synthesis was inhibited; 100% defined by 1 uM CP55940; read-out: CB2 EC50.
As to `CC(C)(NC1CCCCC1)C(=O)Nc1ccc(C(F)(F)F)cn1` [Example 29, 2-Cyclohexylamino-2-methyl-N-(5-trifluoromethyl-pyridin-2-yl)-propionamide], the EC50 was determined as 469 nM.

Broadly, the EC50 is the concentration needed to bring the measured effect to its halfway point.
